# Reference: ChEMBL document CHEMBL1201862, “PubChem BioAssay data set” (2004)
#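 In this assay, cells in 96-well plates receive the compound at five concentrations for 48 hours. Endpoints are linearly interpolated between the surrounding concentrations. GI50 = concentration required for 50% inhibition of growth.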 Active and inactive are the calls of the source. Rule as the data show it: active = GI50 up to about 1.1 µM and inactive = higher.
# Assays:
# Assay in all cases: DTP human tumour cell line panel, 48 h
# K562 = tested on: K562
# M14 = tested on: M14
# U-251 = tested on: U-251
# OVCAR-8 = tested on: OVCAR-8
# NCI/ADR-RES = tested on: NCI/ADR-RES
# Hs-578T = tested on: Hs-578T
# LOX IMVI = tested on: LOX IMVI
# MDA-MB-231 = tested on: MDA-MB-231
# MCF7 = tested on: MCF7
# KM12 = tested on: KM12
# T47D = tested on: T47D
# SR = tested on: SR
# RPMI-8226 = tested on: RPMI-8226
# BT-549 = tested on: BT-549
# HCT-116 = tested on: HCT-116
# MDA-MB-435 = tested on: MDA-MB-435
# OVCAR-3 = tested on: OVCAR-3
# NCI-H23 = tested on: NCI-H23
# SW-620 = tested on: SW-620
# SF-539 = tested on: SF-539
# CAKI-1 = tested on: CAKI-1
# SF-268 = tested on: SF-268
# SK-MEL-2 = tested on: SK-MEL-2
# ACHN = tested on: ACHN
# PC-3 = tested on: PC-3
# UACC-62 = tested on: UACC-62
# A549 = tested on: A549
# MOLT-4 = tested on: MOLT-4
# UACC-257 = tested on: UACC-257
# 786-0 = tested on: 786-0
# SF-295 = tested on: SF-295
# OVCAR-4 = tested on: OVCAR-4
# COLO 205 = tested on: COLO 205
# IGROV-1 = tested on: IGROV-1
# SN12C = tested on: SN12C
# SK-OV-3 = tested on: SK-OV-3
# HT-29 = tested on: HT-29
# RXF 393 = tested on: RXF 393
# MDA-N = tested on: MDA-N
# HOP-92 = tested on: HOP-92
# NCI-H460 = tested on: NCI-H460
# HCC 2998 = tested on: HCC 2998
# SK-MEL-5 = tested on: SK-MEL-5
# HOP-62 = tested on: HOP-62
# NCI-H226 = tested on: NCI-H226
# DU-145 = tested on: DU-145
# SNB-19 = tested on: SNB-19
# EKVX = tested on: EKVX
# NCI-H522 = tested on: NCI-H522
# UO-31 = tested on: UO-31
# CCRF-CEM = tested on: CCRF-CEM
# TK-10 = tested on: TK-10
# OVCAR-5 = tested on: OVCAR-5
# HCT-15 = tested on: HCT-15
# SK-MEL-28 = tested on: SK-MEL-28
# Malme-3M = tested on: Malme-3M
# SNB-75 = tested on: SNB-75
structure (smiles),measurement,setting,value
COc1cccc(C2CC(=O)c3cc(N4CCCC4)ccc3N2)c1 (stereo not drawn),GI50,K562,0.0237 µM (active)
same,GI50,M14,0.0234 µM (active)
same,GI50,U-251,0.0248 µM (active)
same,GI50,OVCAR-8,0.037 µM (active)
same,GI50,NCI/ADR-RES,0.0173 µM (active)
same,GI50,Hs-578T,0.01 µM (active)
same,GI50,LOX IMVI,0.0516 µM (active)
same,GI50,MDA-MB-231,0.0766 µM (active)
same,GI50,MCF7,0.398 µM (active)
same,GI50,KM12,0.0861 µM (active)
same,GI50,T47D,56 µM (inactive)
same,GI50,SR,0.0144 µM (active)
same,GI50,RPMI-8226,0.0492 µM (active)
same,GI50,BT-549,0.0843 µM (active)
same,GI50,HCT-116,0.0251 µM (active)
same,GI50,MDA-MB-435,0.00794 µM (active)
same,GI50,OVCAR-3,0.0344 µM (active)
same,GI50,NCI-H23,0.0265 µM (active)
same,GI50,SW-620,0.0243 µM (active)
same,GI50,SF-539,0.0272 µM (active)
same,GI50,CAKI-1,0.0561 µM (active)
same,GI50,SF-268,0.0692 µM (active)
same,GI50,SK-MEL-2,0.0296 µM (active)
same,GI50,ACHN,0.0832 µM (active)
same,GI50,PC-3,0.022 µM (active)
same,GI50,UACC-62,0.0449 µM (active)
same,GI50,A549,0.036 µM (active)
same,GI50,MOLT-4,0.0338 µM (active)
same,GI50,UACC-257,0.01 µM (active)
same,GI50,786-0,0.0404 µM (active)
same,GI50,SF-295,0.0358 µM (active)
same,GI50,OVCAR-4,23.3 µM (inactive)
same,GI50,COLO 205,0.0365 µM (active)
same,GI50,IGROV-1,0.045 µM (active)
same,GI50,SN12C,0.0418 µM (active)
same,GI50,SK-OV-3,0.043 µM (active)
same,GI50,HT-29,0.0211 µM (active)
same,GI50,RXF 393,0.0177 µM (active)
same,GI50,MDA-N,0.00269 µM (active)
same,GI50,HOP-92,0.348 µM (active)
same,GI50,NCI-H460,40.2 nM (active)
same,GI50,HCC 2998,0.0475 µM (active)
same,GI50,SK-MEL-5,25.2 nM (active)
same,GI50,HOP-62,1.75 µM (inactive)
same,GI50,NCI-H226,0.0385 µM (active)
same,GI50,DU-145,0.0344 µM (active)
same,GI50,SNB-19,0.0296 µM (active)
same,GI50,EKVX,0.27 µM (active)
same,GI50,NCI-H522,17.7 nM (active)
same,GI50,UO-31,0.0735 µM (active)
same,GI50,CCRF-CEM,0.0407 µM (active)
same,GI50,TK-10,1.21 µM (inactive)
same,GI50,OVCAR-5,0.0608 µM (active)
same,GI50,HCT-15,33.5 nM
c1ccc(C2SCc3nc4cc5ccccc5cc4n32)cc1 (stereo not drawn),GI50,K562,> 100 µM (inactive)
same,GI50,M14,> 100 µM (inactive)
same,GI50,U-251,> 100 µM (inactive)
same,GI50,OVCAR-8,> 100 µM (inactive)
same,GI50,NCI/ADR-RES,> 100 µM (inactive)
same,GI50,Hs-578T,60.3 µM (inactive)
same,GI50,LOX IMVI,> 100 µM (inactive)
same,GI50,MDA-MB-231,> 100 µM (inactive)
same,GI50,MCF7,> 100 µM (inactive)
same,GI50,KM12,> 100 µM (inactive)
same,GI50,T47D,> 100 µM (inactive)
same,GI50,SR,> 100 µM (inactive)
same,GI50,RPMI-8226,> 100 µM (inactive)
same,GI50,BT-549,> 100 µM (inactive)
same,GI50,HCT-116,> 100 µM (inactive)
same,GI50,MDA-MB-435,> 100 µM (inactive)
same,GI50,OVCAR-3,> 100 µM (inactive)
same,GI50,NCI-H23,> 100 µM (inactive)
same,GI50,SW-620,> 100 µM (inactive)
same,GI50,SF-539,> 100 µM (inactive)
same,GI50,CAKI-1,> 100 µM (inactive)
same,GI50,SF-268,> 100 µM (inactive)
same,GI50,SK-MEL-28,> 100 µM (inactive)
same,GI50,SK-MEL-2,> 100 µM (inactive)
same,GI50,ACHN,> 100 µM (inactive)
same,GI50,PC-3,> 100 µM (inactive)
same,GI50,UACC-62,> 100 µM (inactive)
same,GI50,Malme-3M,> 100 µM (inactive)
same,GI50,A549,> 100 µM (inactive)
same,GI50,MOLT-4,> 100 µM (inactive)
same,GI50,UACC-257,> 100 µM (inactive)
same,GI50,786-0,60.4 µM (inactive)
same,GI50,SF-295,85.5 µM (inactive)
same,GI50,OVCAR-4,89.3 µM (inactive)
same,GI50,COLO 205,> 100 µM (inactive)
same,GI50,IGROV-1,> 100 µM (inactive)
same,GI50,SN12C,> 100 µM (inactive)
same,GI50,SK-OV-3,> 100 µM (inactive)
same,GI50,HT-29,> 100 µM (inactive)
same,GI50,RXF 393,> 100 µM (inactive)
same,GI50,MDA-N,> 100 µM (inactive)
same,GI50,HOP-92,57.3 µM (inactive)
same,GI50,SNB-75,70.1 µM (inactive)
same,GI50,HCC 2998,> 100 µM (inactive)
same,GI50,HOP-62,> 100 µM (inactive)
same,GI50,NCI-H226,> 100 µM (inactive)
same,GI50,DU-145,> 100 µM (inactive)
same,GI50,SNB-19,> 100 µM (inactive)
same,GI50,EKVX,> 100 µM (inactive)
same,GI50,UO-31,> 100 µM (inactive)
same,GI50,CCRF-CEM,> 100 µM (inactive)
same,GI50,TK-10,> 100 µM (inactive)
same,GI50,OVCAR-5,> 100 µM (inactive)
same,GI50,HCT-15,> 100000 nM
